Test results taken from PMC8201479, “Trisubstituted Pyrrolinones as Small-Molecule Inhibitors Disrupting the Protein–RNA Interaction of LIN28 and Let-7” (ACS Medicinal Chemistry Letters, 2021).
Where two headings read alike, the source gives them in different places.

Legend:
LIN28–let-7 interaction [1] = biological target: T1, LIN28–let-7 interaction (Homo sapiens, UniProt Q9H9Z2); test: Fluorescence polarization (FP) assay, LIN28A (residues 16–187) and FAM-labeled preE-let-7f-1; format: binding; conditions: for IC50: Table 1, quadruplicate, eight concentrations, read-out: IC50, LIN28–let-7 inhibitory activity; for FP, Average (mP): raw data Table S3, four replicates
T1 construct: Purified LIN28A (residues 16–187) was incubated at a concentration of 200 nM; His-tag (cleaved yes); made in house; host or cells: Escherichia coli BL21(DE3)
T1 sequence (Q9H9Z2 16-187): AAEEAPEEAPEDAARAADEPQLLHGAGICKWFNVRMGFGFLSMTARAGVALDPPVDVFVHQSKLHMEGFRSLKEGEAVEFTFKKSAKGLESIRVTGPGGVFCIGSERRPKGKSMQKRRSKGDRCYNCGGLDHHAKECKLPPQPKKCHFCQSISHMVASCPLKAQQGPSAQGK

LIN28–let-7 interaction [2] = biological target: T1, LIN28–let-7 interaction; test: as above; format: binding
Procedure: Protein expression and purification.
19 vector and overexpressed in Escherichia coli BL21(DE3). The culture was incubated at 37 °C until
the absorbance at 600 nm (OD600) reached 0.5–0.7. IPTG was added to a final concentration of
300 µM, and overnight induction was performed at 18 °C. Cells were harvested by centrifugation.
The bacterial pellet was resuspended in lysis buffer (50 mM NaH2PO4, pH 7.5, 300 mM NaCl,
0.1 mM PMSF) and lysed using a Microfluidizer (Microfluidics) . A fresh portion of 0.1 mM PMSF
and Triton X-100 (1% final concentration) were added. The lysate was cleared by ultra centrifugation
at 30000 xg and 4 °C for 1 h. The protein purification was performed using immobilized nickel
300 mM NaCl and 5 % glycerol. Gradient elution was performed with a maximum of 0.5 M imidazole.
Subsequently, the affinity tag was cleaved using His6 -TEV-protease and the protease and unspecific
binders were eliminated by a second nickel affinity chromatography. After protein concentration
LIN28A containing fractions were concentrated and applied to a High Load Superdex 75 pg 16/600
column (GE Healthcare) with gel-filtration buffer (30 mM NaH2PO4, pH 7.5, 50 mM NaCl, 5%
glycerol, 2 mM β-ME). The purified protein was concentrated and stored at -80 °C until further
Fluorescence polarization. The fluorescence polarization assay was performed in black low volume
IC50 measurements were performed with three technical
minutes with compound concentrations ranging from 0.3 nM to 100 µM in FP assay buffer (20 mM
Tris, pH 7, 100 mM NaCl, 5 mM MgCl2, 2 mM glutathione (reduced), 0.1 % NP-40). Subsequently,
FAM-labeled preE-let-7f-1 (mus musculus) ([…]-
FAM, synthesized by IDT) was added to a final concentration of 2 nM. Fluorescence polarization
was detected after incubation at room temperature using a TECAN Spark plate reader. Half maximal
inhibitory concentrations (IC50) were determined using GraphPad Prism 7. […]

[3] = starting from 30 μM, extrapolated based on the observed IC50 curves
[4] = starting from a maximum concentration of 60 μM

Compound: COc1ccc(C(=O)C2=C(O)C(=O)N(c3cccc(-c4nnn[nH]4)c3)C2c2ccc(C(=O)O)cc2)cc1 (centres unmarked) [C888]
- IC50 (LIN28–let-7 interaction [1]; [3]): > 100 µM

Compound: COc1ccc(C(=O)C2=C(O)C(=O)N(c3ccc(O)c(C(=O)O)c3)C2c2ccc(C(=O)O)cc2)cc1 (centres unmarked) [C885]
- IC50 (LIN28–let-7 interaction [1]; [3]): 30 to 40 µM

Compound: O=C(O)c1ccc(C2C(C(=O)c3ccccc3)=C(O)C(=O)N2c2ccc(O)c(C(=O)O)c2)cc1 (centres unmarked) [C880/PH-39]
- IC50 (LIN28–let-7 interaction [2]; text and figures, C-labels = library sample, PH-labels = in-house resynthesized, read-out: IC50 in the FP assay): < 30 µM
- IC50 (LIN28–let-7 interaction [1]; [4]): 6 µM
- FP, Average (mP) (LIN28–let-7 interaction [1]; 0.041 μM compound): 111.50 mP
- FP, Average (mP) (LIN28–let-7 interaction [1]; 0.123 μM compound): 113.50 mP
- FP, Average (mP) (LIN28–let-7 interaction [1]; 0.368 μM compound): 115.75 mP
- FP, Average (mP) (LIN28–let-7 interaction [1]; 1.103 μM compound): 112.00 mP
- FP, Average (mP) (LIN28–let-7 interaction [1]; 3.125 μM compound): 91.63 mP
- FP, Average (mP) (LIN28–let-7 interaction [1]; 9.375 μM compound): 55.98 mP
- FP, Average (mP) (LIN28–let-7 interaction [1]; 29.688 μM compound): 41.63 mP
- FP, Average (mP) (LIN28–let-7 interaction [1]; 59.375 μM compound): 45.53 mP

Compound: O=C(C1=C(O)C(=O)N(c2cccc(-c3nnn[nH]3)c2)C1c1ccc(-c2nccs2)cc1)c1ccccc1 (centres unmarked) [C898]
- IC50 (LIN28–let-7 interaction [1]; [3]): > 100 µM

Compound: COc1ccc(C(=O)C2=C(O)C(=O)N(c3cccc(-c4nnn[nH]4)c3)C2c2ccc(-c3nccs3)cc2)cc1 (centres unmarked) [C901]
- IC50 (LIN28–let-7 interaction [1]; [3]): > 100 µM

Compound: COc1ccc(C(=O)C2=C(O)C(=O)N(c3cccc(C(=O)O)c3)C2c2ccc(-c3nccs3)cc2)cc1 (centres unmarked) [C900]
- IC50 (LIN28–let-7 interaction [1]; [3]): > 100 µM

Compound: O=C(C1=C(O)C(=O)N(c2ccc(O)c([N+](=O)[O-])c2)C1c1ccc(-c2nccs2)cc1)c1ccccc1 (centres unmarked) [PH-37]
- IC50 (LIN28–let-7 interaction [1]; [4]): 41 µM
- FP, Average (mP) (LIN28–let-7 interaction [1]; 0.041 μM compound): 113.25 mP
- FP, Average (mP) (LIN28–let-7 interaction [1]; 0.123 μM compound): 106.48 mP
- FP, Average (mP) (LIN28–let-7 interaction [1]; 0.368 μM compound): 115.75 mP
- FP, Average (mP) (LIN28–let-7 interaction [1]; 1.103 μM compound): 111.25 mP
- FP, Average (mP) (LIN28–let-7 interaction [1]; 3.125 μM compound): 111.50 mP
- FP, Average (mP) (LIN28–let-7 interaction [1]; 9.375 μM compound): 95.58 mP
- FP, Average (mP) (LIN28–let-7 interaction [1]; 29.688 μM compound): 86.53 mP
- FP, Average (mP) (LIN28–let-7 interaction [1]; 59.375 μM compound): 71.50 mP

Compound: COc1ccc(C(=O)C2=C(O)C(=O)N(c3ccc(O)c(C(=O)O)c3)C2c2ccc(-c3nccs3)cc2)cc1OC (centres unmarked) [PH-44]
- IC50 (LIN28–let-7 interaction [1]; [4]): 12 µM
- FP, Average (mP) (LIN28–let-7 interaction [1]; 0.041 μM compound): 96.70 mP
- FP, Average (mP) (LIN28–let-7 interaction [1]; 0.123 μM compound): 118.00 mP
- FP, Average (mP) (LIN28–let-7 interaction [1]; 0.368 μM compound): 115.00 mP
- FP, Average (mP) (LIN28–let-7 interaction [1]; 1.103 μM compound): 107.75 mP
- FP, Average (mP) (LIN28–let-7 interaction [1]; 3.125 μM compound): 92.95 mP
- FP, Average (mP) (LIN28–let-7 interaction [1]; 9.375 μM compound): 82.98 mP
- FP, Average (mP) (LIN28–let-7 interaction [1]; 29.688 μM compound): 63.53 mP
- FP, Average (mP) (LIN28–let-7 interaction [1]; 59.375 μM compound): 54.00 mP

Compound: COc1ccc(C(=O)C2=C(O)C(=O)N(c3cccc(C(=O)O)c3)C2c2ccc(C(=O)O)cc2)cc1 (centres unmarked) [C886]
- IC50 (LIN28–let-7 interaction [1]; [3]): > 100 µM

Compound: O=C(O)c1ccc(C2C(C(=O)c3ccc(Br)cc3)=C(O)C(=O)N2c2cccc(C(=O)O)c2)cc1 (centres unmarked) [C894]
- IC50 (LIN28–let-7 interaction [1]; [3]): > 100 µM

Compound: O=C(O)c1ccc(N2C(=O)C(O)=C(C(=O)c3ccc(Br)cc3)C2c2ccc(-c3nccs3)cc2)cc1 (centres unmarked) [C899]
- IC50 (LIN28–let-7 interaction [2]): > 100 µM

Compound: COc1ccc(C(=O)C2=C(O)C(=O)N(c3ccc(C(=O)O)cc3)C2c2ccc(C(=O)O)cc2)cc1 (centres unmarked) [C887]
- IC50 (LIN28–let-7 interaction [1]; [3]): > 100 µM

Compound: O=C(O)c1ccc(C2C(C(=O)c3ccccc3)=C(O)C(=O)N2c2cccc(C(=O)O)c2)cc1 (centres unmarked) [C881]
- IC50 (LIN28–let-7 interaction [1]; [3]): > 100 µM

Compound: O=C(C1=C(O)C(=O)N(c2ccc(O)cc2)C1c1ccc(-c2nccs2)cc1)c1ccc(Br)cc1 (centres unmarked) [PH-35]
- IC50 (LIN28–let-7 interaction [1]; starting from a maximum of 60 μM, extrapolated based on the observed IC50 curves): > 100 µM
- FP, Average (mP) (LIN28–let-7 interaction [1]; 0.041 μM compound): 115.25 mP
- FP, Average (mP) (LIN28–let-7 interaction [1]; 0.123 μM compound): 112.75 mP
- FP, Average (mP) (LIN28–let-7 interaction [1]; 0.368 μM compound): 116.50 mP
- FP, Average (mP) (LIN28–let-7 interaction [1]; 1.103 μM compound): 109.50 mP
- FP, Average (mP) (LIN28–let-7 interaction [1]; 3.125 μM compound): 110.25 mP
- FP, Average (mP) (LIN28–let-7 interaction [1]; 9.375 μM compound): 104.00 mP
- FP, Average (mP) (LIN28–let-7 interaction [1]; 29.688 μM compound): 104.65 mP
- FP, Average (mP) (LIN28–let-7 interaction [1]; 59.375 μM compound): 93.48 mP
